Measured values taken from ChEMBL document CHEMBL3507680, “University of Dundee, Gates Library screen for HepG2 cell viability”.

Test: Human HepG2 cell viability assay in 384 well format
Format: toxicity, cell-based
Set-up: dose 125 nL, time 70.5 hour; concentration not given beside the values
Details: HepG2 cells, read-out: Inhibition

Compound | cytotoxicity at 70.5 h [%]
CCN1CC2(CC1=O)CN(C(=O)NC(C)C)CCN(S(C)(=O)=O)C2 (centres undefined) | -2.48
CCN1CC2(CC1=O)CN(C(C)=O)CCN(C(=O)NC)C2 (centres undefined) | -3.8
CCN1CC2(CC1=O)CN(C(=O)NC(C)C)CCN(C(=O)C(C)C)C2 (centres undefined) | -3.19
N#Cc1cccc(C(=O)NC2CCc3c(ccc(=O)n3CC3CC3)C2)c1 (centres undefined) | -2.82
COc1ccc(CC(=O)N2CC[C@@H]3CN(C)S(=O)(=O)[C@@H]3CC2)cc1 | -5.74
COCC(=O)N1C[C@H]2CCC[C@@]2(COC)C1 | -5.02
CCOCC(=O)N1C[C@H]2CCC[C@@]2(COC)C1 | -7.78
Cn1ccnc1CN1CCC2(CC1)COCCN(c1ncccn1)C2 | -5.62
CCC(C)(C)C(=O)N1C[C@@H]2C[C@@H](c3nnc(C)[nH]3)O[C@@H]2C1 | -8.87
COc1cccc(NC(=O)N2CC[C@@H]3CN(C)S(=O)(=O)[C@@H]3CC2)c1 | 20.9
COCCN(C)C(=O)c1cc2c(s1)CCN2C(=O)C1CC1 | 2.55
c1c(CN2CCOCC2)nc2n1CCN(CC1CC1)C2 | -3.69
Cn1ccc(C(=O)N2CCC3(CC2)CC(Nc2cnccn2)CO3)n1 (centres undefined) | -7
Cc1cccc(CN2CCC3(CC(C(=O)NCC(C)C)=NO3)C2)c1 (centres undefined) | -5.06
COCC(=O)N1CCCC2(CCN(c3ccsc3)C2=O)C1 (centres undefined) | 32.8
N#Cc1ccc(C(=O)N2CC[C@H]3[C@@H]2CCC(=O)N3c2ccccc2)cc1 | -12
Cn1cccc1C(=O)N1CCn2cc(CNC(=O)CC3CC3)nc2C1 | -10.2
COCCC(=O)N1CC[C@@H](N(C)C)[C@@H]1Cc1ccccc1 | -3.88
O=C(c1ccncc1)N1CCCn2c(CN3CCCCC3)nnc2C1 | -8.6
COCC1CN(C(=O)c2ccnnc2)Cc2c1cnn2C (centres undefined) | -1.23
COc1cccc(CC(=O)N2CCc3ncnc(NC(C)C)c3CC2)c1 | -14
CN1C(=O)CC(c2cnn(C)c2)C12CCN(C(=O)C1CC=CC1)CC2 (centres undefined) | -6.39
O=C(c1ccoc1)N1CC[C@@H]2O[C@H](COCc3ccccn3)CC[C@@H]21 | -11.6
CC1N(c2cnn(C)c2)C(=O)COC12CCN(c1ccccn1)CC2 (centres undefined) | -2.76
CO[C@@H]1CCN(C(=O)Cc2cccc(F)c2)[C@H]1Cc1cccnc1 | -3.88

Compound | cytotoxicity at 70.5 h [%]
CC1N(c2cnn(C)c2)C(=O)COC12CCN(CC1CC1)CC2 (centres undefined) | -3.07
CO[C@@H]1CCN(C(=O)Cc2ccsc2)[C@H]1Cc1cccnc1 | -5.91
Cc1nc(CN2CCN(C)C(=O)C23CCN(C(C)C)CC3)cs1 | -9.48
CCN1CCN(C)C(=O)C12CCN(Cc1csc(C)n1)CC2 | -8.47
COc1cccc(CC(=O)N2CC[C@@H]3[C@H](CC2)N(C)CCS3(=O)=O)c1 | -2.21
CN1CCN(CC2CC2)C(=O)C12CCN(C(=O)CC(F)(F)F)CC2 | -4.4
CNC(=O)[C@H]1C[C@@H]2CN(Cc3cccc(C)c3)C[C@H]1O2 | -6.34
O=C([C@H]1CC[C@@H]2[C@@H](CCN2C2CCOCC2)O1)N1CCOCC1 | -6.52
O=C([C@H]1CC[C@@H]2[C@@H](CCN2C2CCCCC2)O1)N1CCOCC1 | -7.67
COC[C@@]12CCC[C@@H]1CN(C(=O)CN(C)C)C2 | -6.84
Cc1ccc(CN2CCc3onc(C(=O)NC(C)C)c3C2)o1 | -8.41
COCC1COCCC12CCN(Cc1nccs1)CC2 (centres undefined) | -5.6
C1CC(N2Cc3nnn(CC4CC4)c3C(COCC3CC3)C2)C1 (centres undefined) | -3.4
Cc1noc(C)c1CN1CC[C@@H](OCC2CC2)[C@@H](Cc2ccccc2)C1 | -4.91
CCn1cc2c(n1)CN(CC1CC1)CC2COCC1CC1 (centres undefined) | -15
O=C1COC2(CCN(Cc3ccoc3)CC2)CN1c1ccsc1 | -15.9
CCn1cc2c(n1)CN(Cc1nccs1)CC2COCC1CC1 (centres undefined) | -11
CC(=O)N1CCOCC2(CN(Cc3ccc(C)o3)CCO2)C1 (centres undefined) | 28.8
O=C([C@@H]1C[C@@H]2CCN(CCc3ccccc3)C[C@H]2O1)N1CCCC1 | -3.84
Cc1ccc(CN2CCCn3nnc(COCC4CC4)c3C2)s1 | -1.67
Cc1noc(C)c1CN1C[C@@H]2COC[C@H](C(=O)N3CCCCO3)[C@@H]2C1 | -13
Cn1cc(CN2CCn3cc(CNC(=O)c4cccn4C)nc3C2)cn1 | -2.17
Cc1occc1C(=O)N1CCO[C@H]2[C@@H](Oc3ccccn3)CC[C@@H]21 | 4.46
Cc1ccc(CN2C[C@@H]3COC[C@H](C(=O)N4CCCCO4)[C@@H]3C2)o1 | -8.64
O=C(c1cscn1)N1CC[C@]2(C[C@@H](OCCN3CCCC3)CO2)C1 | -6.54

Compound | cytotoxicity at 70.5 h [%]
Cc1cccc(COC[C@H]2CC[C@H]3[C@H](CCN3C(=O)CC3CC3)O2)n1 | -6.89
CCN1C(=O)CCC12CCCN(Cc1nccs1)CC2 (centres undefined) | -8.57
O=C1[C@H]2CN(Cc3nccs3)C[C@H]2CN1c1ccsc1 | -1.21
CO[C@H]1CN(C(=O)c2ccccn2)[C@@H]2CCCO[C@H]12 | -14.9
O=C(C[C@@H]1COC[C@H]2CN(Cc3cccnc3)C[C@@H]12)NCC1CC1 | -4.39
CN1CCN(C(=O)[C@H]2C[C@H]3[C@H](CCN3Cc3cccs3)O2)CC1 | -2.03
Cc1cnc(N2CCC3(CC2)CN(Cc2cccs2)CCO3)nc1 | -8.99
Fc1cnc(N2CCOC3(CCN(Cc4cccs4)CC3)C2)nc1 | -6.76
Cc1ccc(CN2CCc3onc(C(=O)NCCN(C)C)c3C2)o1 | -8.28
COCCN1C[C@@H]2COC[C@@H](CC(=O)NCc3cccnc3)[C@@H]2C1 | -16.6
CCOC1COC2(CCN(Cc3cccnc3OC)CC2)C1 (centres undefined) | -1.38
c1c(CN2CCCC2)nc2n1CCN(C1CCOCC1)C2 | -0.565
O=C(N1CCOCC1)[C@@]12CCO[C@@H]1CCN(Cc1ccncc1)C2 | -3.44
CN1CCOCC12CCN(Cc1ccoc1)CC2 | -13.2
Cc1ccc2c(n1)N(CCN(C)C)CCN(C(=O)c1ccc[nH]1)C2 | 0.599
CN(Cc1cn2c(n1)CN(CC1CC1)CC2)Cc1ccco1 | -11.8
CN(Cc1cn2c(n1)CN(c1ncc(F)cn1)CC2)Cc1ccco1 | -8.98
O=C(NC[C@]12COC[C@H]1CN(Cc1cccnc1)C2)c1ccno1 | -14.7
c1cncc(CN2CC[C@H]3O[C@@H](COCC4CC4)CC[C@H]32)c1 | -5.15
c1cncc(CN2CCc3ncnc(C4CCOC4)c3CC2)c1 (centres undefined) | 22.8
COCCN1C[C@@H]2CCCO[C@@H]2[C@H](N(C)Cc2ccco2)C1 | -2.22
CC(C)N1CC[C@H]2[C@H](C[C@@H](Cn3cccn3)N2c2nccs2)C1 | -4.28
CN(C)CCN1CCOCC2(C1)CN(Cc1ccsc1)CCO2 (centres undefined) | -9.68
Cc1ccc(N2CCO[C@H]3CN(Cc4ccncc4)C[C@H]32)nn1 | -8.56
